Test results: US9918990B2, “Substituted pyrrolo[2,3-c]pyridines and pyrazolo[3,4-c]pyridines as BET protein inhibitors” (Incyte Corporation, priority 2013, dated 2018)
Structures can show the parent of a compound that is named as a salt.

Experiments:
[1] = molecular target: BRD4-BD1 (Homo sapiens (Human), UniProt O60885); experiment: BRD4 AlphaScreen assay, BRD4-BD1; assay type: binding; details: H4Ac4 peptide, 75 min, room temperature, read-out: BRD4 BD-1 enzyme IC50
In short: (§1)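 AlphaScreen read after 75 min dark incubation at room temperature, inhibitors serially diluted in DMSO and added before other components. IC50 from fit of percent control activity versus log inhibitor concentration.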

[2] = tested on: C-myc; experiment: KMS.12.BM C-myc ELISA assay; assay type: cell-based; details: Homo sapiens; KMS.12.BM cells, 2 hours, concentration required for 50% C-myc inhibition
In short: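 Human myeloma KMS.12.BM cells in RPMI/10% FBS were exposed to a compound concentration range for 2 h, then lysed with protease inhibitors. C-myc in clarified lysates was measured by ELISA. IC50 is the concentration giving 50% C-myc inhibition relative to untreated cells.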

[3] = molecular target: BRD4-BD2 (Homo sapiens (Human), UniProt O60885); experiment: BRD4 AlphaScreen assay, BRD4-BD2; assay type: binding; details: H4Ac4 peptide, 75 min, room temperature, read-out: BRD4 BD-2 enzyme IC50
In short: as §1

[4] = tested on: KMS.12.BM cells; experiment: KMS.12.BM cell viability assay (Cell Titer-GLO, ATP quantitation); assay type: cell-based; details: Homo sapiens, 72 h, 3 days, concentration required for 50% cell death, read-out: KMS cellular IC50
In short: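 Human myeloma KMS.12.BM cells, 5000 cells/well in RPMI with 10% FBS, were exposed to a compound concentration range for 3 days. Viability was read by Cell Titer-GLO ATP luminescence relative to untreated cells; IC50 is the concentration giving 50% cell death.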

Row | Compound | IC50 [1] [nM] | IC50 [2] [nM] | IC50 [3] [nM] | IC50 [4] [nM]
1 | CN1CCN(CCn2c(=O)n(C)c3ccc(-c4cn(C)c(=O)c5[nH]ccc45)c(OCC4CCC4)c32)CC1 [Example 68, 4-(Cyclobutylmethoxy)-1-methyl-5-(6-methyl-7-oxo-6,7-dihydro-1H-pyrrolo[2,3-c]pyridin-4-yl)-3-[2-(4-methylpiperazin-1-yl)ethyl]-1,3-dihydro-2H-benzimidazol-2-one] | < 100 | ≤ 1000 | < 100 | ≤ 1000
2 | Cn1cc(-c2ccc3c([nH]c(=O)n3CCN3CCOCC3)c2Oc2ccccc2)c2cc[nH]c2c1=O [Example 69, 5-(6-Methyl-7-oxo-6,7-dihydro-1H-pyrrolo[2,3-c]pyridin-4-yl)-1-(2-morpholin-4-ylethyl)-4-phenoxy-1,3-dihydro-2H-benzimidazol-2-one trifluoroacetate] | < 100 | ≤ 1000 | < 100 | ≤ 1000
3 | C[C@@H]1CN(CCn2c(=O)[nH]c3c(Oc4ccccc4)c(-c4cn(C)c(=O)c5[nH]ccc45)ccc32)C[C@H](C)O1 [Example 70, 1-{2-[(2R,6S)-2,6-Dimethylmorpholin-4-yl]ethyl}-5-(6-methyl-7-oxo-6,7-dihydro-1H-pyrrolo[2,3-c]pyridin-4-yl)-4-phenoxy-1,3-dihydro-2H-benzimidazol-2-one trifluoroacetate] | < 100 | ≤ 1000 | < 100 | ≤ 1000
4 | Cn1cc(-c2ccc3c([nH]c(=O)n3C)c2OCC2CC2)c2cc[nH]c2c1=O [Example 74, 4-(Cyclopropylmethoxy)-1-methyl-5-(6-methyl-7-oxo-6,7-dihydro-1H-pyrrolo[2,3-c]pyridin-4-yl)-1,3-dihydro-2H-benzimidazol-2-one] | < 100 | ≤ 1000 | < 100 | ≤ 1000
5 | Cn1cc(-c2ccc3ncc(=O)[nH]c3c2Oc2ccc(F)cc2F)c2cn[nH]c2c1=O [Example 75, 8-(2,4-Difluorophenoxy)-7-(6-methyl-7-oxo-6,7-dihydro-1H-pyrazolo[3,4-c]pyridin-4-yl)quinoxalin-2(1H)-one] | < 100 | ≤ 1000 | < 100 | ≤ 1000
6 | Cn1cc(-c2ccc3c(cnn3C)c2OCC2CC2)c2cc[nH]c2c1=O [Example 76, 4-[4-(Cyclopropylmethoxy)-1-methyl-1H-indazol-5-yl]-6-methyl-1,6-dihydro-7H-pyrrolo[2,3-c]pyridin-7-one] | < 100 | ≤ 1000 | < 100 | ≤ 1000
7 | Cn1cc(-c2ccc3c(cnn3C)c2OCC2CC2)c2cn[nH]c2c1=O [Example 77, 4-[4-(Cyclopropylmethoxy)-1-methyl-1H-indazol-5-yl]-6-methyl-1,6-dihydro-7H-pyrazolo[3,4-c]pyridin-7-one] | < 100 | ≤ 1000 | < 100 | ≤ 1000
8 | CC(O)c1cc(-c2cn(C)c(=O)c3[nH]ncc23)c(Oc2ccc(F)cc2F)c2ncn(C)c12 (stereo not shown) [Example 78, 4-[4-(2,4-Difluorophenoxy)-7-(1-hydroxyethyl)-1-methyl-1H-benzimidazol-5-yl]-6-methyl-1,6-dihydro-7H-pyrazolo[3,4-c]pyridin-7-one] | < 100 | ≤ 1000 | < 100 | ≤ 1000
9 | Cn1cc(-c2ccc3c([nH]c(=O)n3C)c2Oc2ccc(Cl)cc2)c2cc[nH]c2c1=O [Example 86, 4-(4-Chlorophenoxy)-1-methyl-5-(6-methyl-7-oxo-6,7-dihydro-1H-pyrrolo[2,3-c]pyridin-4-yl)-1,3-dihydro-2H-benzimidazol-2-one] | < 100 | ≤ 1000 | < 100 | ≤ 1000
10 | Cn1cc(-c2ccc3c([nH]c(=O)n3C)c2Oc2cccc(Cl)c2)c2cc[nH]c2c1=O [Example 87, 4-(3-Chlorophenoxy)-1-methyl-5-(6-methyl-7-oxo-6,7-dihydro-1H-pyrrolo[2,3-c]pyridin-4-yl)-1,3-dihydro-2H-benzimidazol-2-one] | < 100 | ≤ 1000 | < 100 | ≤ 1000
11 | Cn1cc(-c2ccc3c([nH]c(=O)n3C)c2OCC2CCCCC2)c2cc[nH]c2c1=O [Example 88, 4-(Cyclohexylmethoxy)-1-methyl-5-(6-methyl-7-oxo-6,7-dihydro-1H-pyrrolo[2,3-c]pyridin-4-yl)-1,3-dihydro-2H-benzimidazol-2-one] | < 100 | ≤ 1000 | < 100 | ≤ 1000
12 | Cn1cc(-c2ccc3c([nH]c(=O)n3C)c2OC2CCC2)c2cc[nH]c2c1=O [Example 89, 4-(Cyclobutyloxy)-1-methyl-5-(6-methyl-7-oxo-6,7-dihydro-1H-pyrrolo[2,3-c]pyridin-4-yl)-1,3-dihydro-2H-benzimidazol-2-one] | < 100 | ≤ 1000 | < 100 | ≤ 1000
13 | Cn1cc(-c2ccc3c([nH]c(=O)n3C)c2OC2CCCCC2)c2cc[nH]c2c1=O [Example 90, 4-(Cyclohexyloxy)-1-methyl-5-(6-methyl-7-oxo-6,7-dihydro-1H-pyrrolo[2,3-c]pyridin-4-yl)-1,3-dihydro-2H-benzimidazol-2-one] | < 100 | ≤ 1000 | < 100 | ≤ 1000
14 | Cn1cc(-c2ccc3c([nH]c(=O)n3C)c2OC2CCCOC2)c2cc[nH]c2c1=O (stereo not shown) [Example 91, 1-Methyl-5-(6-methyl-7-oxo-6,7-dihydro-1H-pyrrolo[2,3-c]pyridin-4-yl)-4-(tetrahydro-2H-pyran-3-yloxy)-1,3-dihydro-2H-benzimidazol-2-one] | < 100 | ≤ 1000 | < 100 | ≤ 1000
15 | Cn1cc(-c2ccc3c([nH]c(=O)n3C)c2OCC2CCCC2)c2cc[nH]c2c1=O [Example 92, 4-(Cyclopentylmethoxy)-1-methyl-5-(6-methyl-7-oxo-6,7-dihydro-1H-pyrrolo[2,3-c]pyridin-4-yl)-1,3-dihydro-2H-benzimidazol-2-one] | < 100 | ≤ 1000 | < 100 | ≤ 1000
16 | Cn1cc(-c2ccc3c([nH]c(=O)n3C)c2OC2CCCC2)c2cc[nH]c2c1=O [Example 93, 4-(Cyclopentyloxy)-1-methyl-5-(6-methyl-7-oxo-6,7-dihydro-1H-pyrrolo[2,3-c]pyridin-4-yl)-1,3-dihydro-2H-benzimidazol-2-one] | < 100 | ≤ 1000 | < 100 | ≤ 1000
17 | Cn1cc(-c2ccc3c(c2Oc2ccccc2)NC(=O)CO3)c2cc[nH]c2c1=O [Example 94, 6-(6-Methyl-7-oxo-6,7-dihydro-1H-pyrrolo[2,3-c]pyridin-4-yl)-5-phenoxy-2H-1,4-benzoxazin-3(4H)-one] | < 100 | ≤ 1000 | < 100 | ≤ 1000
18 | Cn1cc(-c2ccc3ocnc3c2Oc2ccccc2)c2cc[nH]c2c1=O [Example 96, 6-Methyl-4-(4-phenoxy-1,3-benzoxazol-5-yl)-1,6-dihydro-7H-pyrrolo[2,3-c]pyridin-7-one] | < 100 | ≤ 1000 | < 100 | ≤ 1000
19 | Cn1cc(-c2ccc3oc(CN)nc3c2Oc2ccccc2)c2cc[nH]c2c1=O [Example 103, 4-[2-(Aminomethyl)-4-phenoxy-1,3-benzoxazol-5-yl]-6-methyl-1,6-dihydro-7H-pyrrolo[2,3-c]pyridin-7-one] | < 100 | ≤ 1000 | < 100 | ≤ 1000
